One assay addresses ALR2 enzyme (Ovis aries, UniProt A0ACI6S8R2). Put plainly: ALR2 enzyme activity / in vitro inhibition (NADPH absorbance decrease at 340 nm, DL-glyceraldehyde substrate). Format: biochemical. The protocol:
By tracking the shift in absorbance at 340 nm brought on by a decrease in NADPH, ALR2 activity was ascertained. The reaction mixture for ALR2 activity consists of 0.8 M Na‐phosphate buffer (pH = 5.5), NADPH (0.11 mM), DL‐glyceraldehyde (4.7 mM), and enzyme solution [36, 37]. […] Every measurement was taken three times.
The K I values and inhibition types were ascertained using the Lineweaver and Burk curves (Figure 5).

Assay [1] deals with ALR2. Also on record: method as in ref 79 (Sever et al.). The conditions noted are these: ref 79 (Sever et al.); cited from earlier work.
In assay [2] the test system is ALR2. The arrangement: method as in ref 80 (Racowitz et al.). The conditions noted are these: ref 80 (Racowitz et al.); cited from earlier work.

Read-outs that look alike come from different tables or passages of the source.

For Isoxazole, on ALR2 enzyme (Lineweaver-Burk curves), the Inhibition type result is on record as “Noncompetitive”. On ALR2 enzyme (mean ± standard error of mean, Lineweaver-Burk curves), this compound yielded an inhibition constant (Ki) of 89.5 ± 4.68 nM. On ALR2 enzyme (mean ± standard error of mean, from Activity (%) vs compound graphs), this compound displayed an IC50 of 43 ± 1.64 nM.

`Brc1ccc(-c2ccon2)cc1` [d, 3‐(4‐bromophenyl) isoxazole]: the Inhibition type result on ALR2 enzyme (Lineweaver-Burk curves) is on record as “Competitive”.

In the case of `Clc1ccc(-c2ccon2)cc1` [b, 3‐(4‐chlorophenyl) isoxazole], at ALR2 enzyme (Lineweaver-Burk curves), the Inhibition type entry is given as “Competitive”.

In the case of `O=c1c(O)c(-c2ccc(O)c(O)c2)oc2cc(O)cc(O)c12` [quercetin], the IC50 in the assay on ALR2 [1] was 3230 nM.

`O=C(O)Cc1nn(Cc2ccc(Br)cc2F)c(=O)c2ccccc12` [ponalrestat]: in the assay with ALR2 [2], the concentration for half-maximal inhibition (IC50) was 80 nM.

As for `Fc1ccc(-c2ccon2)cc1` [e, 3‐(4‐fluorophenyl) isoxazole], the Inhibition type entry on ALR2 enzyme (Lineweaver-Burk curves) is listed as “Competitive”.

Take `Clc1ccc(-c2ccno2)cc1` [g, 5‐(4‐chlorophenyl) isoxazole]: at ALR2 enzyme (Lineweaver-Burk curves), the Inhibition type entry is reported as “Competitive”.

As to `Fc1ccc(-c2ccno2)cc1` [f, 5‐(4‐fluorophenyl) isoxazole], the Inhibition type entry at ALR2 enzyme (Lineweaver-Burk curves) is “Competitive”.

Take `O=C1NC(=O)[C@@]2(CCOc3ccc(F)cc32)N1` [sorbinil]: the IC50 in the assay with ALR2 [2] was 3420 ± 20 nM.

As to `O=[N+]([O-])c1ccc(-c2ccon2)cc1` [Compound c, 3‐(4‐nitrophenyl) isoxazole], the Inhibition type result on ALR2 enzyme (Lineweaver-Burk curves) is listed as “Competitive”.

On to `CC(/C=C1\SC(=S)N(CC(=O)O)C1=O)=C\c1ccccc1` [EPR, Epalrestat, reference compound], for which the Inhibition type entry at ALR2 enzyme is given as “Noncompetitive”.

On to `COc1ccc(-c2ccno2)cc1` [h, 5‐(4‐methoxyphenyl) isoxazole], for which, at ALR2 enzyme (Lineweaver-Burk curves), the Inhibition type entry is on record as “Competitive”.

One may read the Ki as a measure of affinity in units of concentration, obtained from inhibition or displacement. A low value points to higher affinity. As a reminder, the IC50 is the point on the concentration scale where inhibition reaches its midpoint.
